Source: PubChem BioAssay AID485337 (Sanford-Burnham Center for Chemical Genomics, 2010)
The source made the active and inactive calls. How the calls were made is not given here.

These molecules were tested against SUMO-conjugating enzyme UBC9 (Homo sapiens) (UniProt P63279) (assay: potency of SUMOylation cascade inhibitors, SAR follow-up, biochemical, HTRF, set 2 (AID 485337)). Settings: in vitro SUMOylation, HTRF read-out.
Sequence of SUMO-conjugating enzyme UBC9 (Homo sapiens) (P63279 whole entry, looked up): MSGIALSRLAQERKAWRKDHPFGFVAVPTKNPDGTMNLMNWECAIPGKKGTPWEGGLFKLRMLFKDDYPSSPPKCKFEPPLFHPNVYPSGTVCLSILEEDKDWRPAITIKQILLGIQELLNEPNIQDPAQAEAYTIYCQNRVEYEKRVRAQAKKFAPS

SMILES	IC50
COCCNC(=O)c1c(NC(=O)c2ccccc2)n(Cc2ccccc2)c2nc3ccccc3nc12	13.4 µM
N#Cc1c(NC(=O)c2ccccc2Cl)n(Cc2ccccc2)c2nc3ccccc3nc12	12.2 µM
CCCCn1c(NC(C)=O)c(C#N)c2nc3ccccc3nc21	3.39 µM
CCCCn1c(NC(=O)c2ccccc2)c(C#N)c2nc3ccccc3nc21	16.4 µM
Nc1c(C(=O)NCc2ccco2)c2nc3ccccc3nc2n1Cc1ccccc1	31.1 µM
COCCn1c(NC(=O)c2ccc(Cl)cc2)c(S(=O)(=O)c2ccc(C)cc2)c2nc3ccccc3nc21	78.8 µM
CC(=O)NC1C(=O)N(CCN2CCOCC2)c2ccc(C)cc21 (centres undefined)	> 100 µM (inactive)
CCCCn1c(NC(=O)c2ccco2)c(C#N)c2nc3ccccc3nc21	8.06 µM
COc1cc(/C=C2\C(=O)N(c3ccccc3)N=C2C)ccc1OC(=O)c1cccs1	> 100 µM (inactive)
CCCCCn1c(NC(=O)c2ccco2)c(C(=O)OCC)c2nc3ccccc3nc21	14.8 µM
COc1ccc(CN2C(=O)C(NC(C)=O)c3ccccc32)cc1 (centres undefined)	> 100 µM (inactive)
COc1cc(/C=C2\C(=O)N(c3ccccc3)N=C2C)ccc1OCc1ccccc1	> 100 µM (inactive)
COc1ccc2c(c1)C(=O)C(=O)N2CCN1CCOCC1	> 100 µM (inactive)
N#Cc1c(NC(=O)c2ccccc2Cl)n(C2CCCCC2)c2nc3ccccc3nc12	23.1 µM
COc1ccc2c(c1)C(NC(C)=O)C(=O)N2CCN1CCOCC1 (centres undefined)	6.06 µM
COc1ccc2c(c1)C(NC(C)=O)C(=O)N2CC1COc2ccccc2O1 (centres undefined)	> 100 µM (inactive)
CCCCn1c(NC(=O)c2ccco2)c(S(=O)(=O)c2ccc(C)cc2)c2nc3ccccc3nc21	12.5 µM
Cc1cc(C)c2c(c1)C(=O)C(=O)N2CCN1CCOCC1	> 100 µM (inactive)
CCCCn1c(NC(=O)c2ccccc2)c(S(=O)(=O)c2ccc(C)cc2)c2nc3ccccc3nc21	inactive
COc1ccc2c(c1)C(NC(C)=O)C(=O)N2CCc1ccccc1 (centres undefined)	> 100 µM (inactive)
CCCCn1c(NC(=O)CC)c(S(=O)(=O)c2ccc(C)cc2)c2nc3ccccc3nc21	inactive
COc1cc(/C=C2\C(=O)N(c3ccccc3)N=C2C)ccc1O	> 100 µM (inactive)
CCCN1C(=O)C(NC(C)=O)c2cc(OC)ccc21 (centres undefined)	> 100 µM (inactive)
S=c1[nH]nc(-c2cc(-c3ccccc3)n[nH]2)n1N=Cc1ccc(Br)s1	inactive
CCCCn1c(NC(=O)c2ccc(Cl)cc2)c(C#N)c2nc3ccccc3nc21	22.6 µM
COc1ccc2c(c1)C(NC(C)=O)C(=O)N2CCOc1ccccc1 (centres undefined)	> 100 µM (inactive)
CCCCNC(=O)c1c(NC(=O)c2ccccc2)n(Cc2ccccc2)c2nc3ccccc3nc12	30.6 µM
CCCCn1c(N)c(S(=O)(=O)c2ccc(C)cc2)c2nc3ccccc3nc21	9.28 µM
CCCCn1c(NC(=O)c2ccccc2Cl)c(S(=O)(=O)c2ccccc2)c2nc3ccccc3nc21	37.6 µM
